# Results published in publication doi:10.1101/2022.06.14.496144v1, “Crystal structure and functional peculiarities of a primordial Orange Carotenoid Protein (OCPX)” (biorxiv, 2022).
# Positions count from the first letter of the chain named.
# Key:
# Type in all cases: binding
# GlOCPX [1] = molecular target: T1, GlOCPX (Gloeobacter kilaueensis, UniProt U5QHX0); assay: co-purified holoprotein, SEC with absorbance spectra, photocycle; conditions: pH 7.6; ECH-producing E. coli
# T1 construct: gene GKIL_2275; full length M1-R322, codon-optimised, E. coli C41(DE3) making ECH or CAN, His tag cut by 3C leaving N-terminal GPH
# T1 sequence (U5QHX0 1-322): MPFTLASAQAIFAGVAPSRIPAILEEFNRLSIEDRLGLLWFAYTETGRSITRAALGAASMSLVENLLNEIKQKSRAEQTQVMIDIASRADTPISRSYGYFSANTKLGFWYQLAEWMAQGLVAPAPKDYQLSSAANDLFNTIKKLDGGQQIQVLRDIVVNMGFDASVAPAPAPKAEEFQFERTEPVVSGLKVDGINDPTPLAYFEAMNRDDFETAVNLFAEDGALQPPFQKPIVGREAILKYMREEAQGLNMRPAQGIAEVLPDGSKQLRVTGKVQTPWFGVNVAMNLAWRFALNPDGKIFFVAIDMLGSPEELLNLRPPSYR
# ΔNTE-GlOCPX = molecular target: T2, ΔNTE-GlOCPX (Gloeobacter kilaueensis, UniProt U5QHX0); assay: co-purified holoprotein, absorbance, photocycle; conditions: pH 7.6; ECH-producing E. coli
# T2 construct: gene GKIL_2275; N-terminal extension M1-P17 removed, E. coli C41(DE3) making ECH, His-3C tag
# T2 sequence (U5QHX0 18-322): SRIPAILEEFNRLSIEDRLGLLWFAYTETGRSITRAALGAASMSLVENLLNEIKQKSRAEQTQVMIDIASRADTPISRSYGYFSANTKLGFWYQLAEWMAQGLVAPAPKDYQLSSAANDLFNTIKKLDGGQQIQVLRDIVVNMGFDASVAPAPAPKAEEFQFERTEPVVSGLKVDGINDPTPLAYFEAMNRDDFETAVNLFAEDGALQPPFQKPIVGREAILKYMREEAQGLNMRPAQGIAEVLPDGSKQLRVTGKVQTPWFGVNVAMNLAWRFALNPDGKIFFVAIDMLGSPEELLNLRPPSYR
# GlOCPX [2] = molecular target: T3, GlOCPX (Gloeobacter kilaueensis, UniProt U5QHX0, E25A); assay: X-ray crystal structure, […] Å; conditions: between NTD and CTD; pH 6.5 crystals
# T3 construct: gene GKIL_2275; full length M1-R322, codon-optimised, E. coli C41(DE3) making ECH or CAN, His tag cut by 3C leaving N-terminal GPH
# T3 sequence (U5QHX0 1-322 E25A): T1 sequence (U5QHX0 1-322) with E25A
compound,measurement,setting,value
"CC1=C(/C=C/C(C)=C/C=C/C(C)=C/C=C/C=C(C)/C=C/C=C(C)/C=C/C2=C(C)C(=O)CCC2(C)C)C(C)(C)CCC1 [ECH, echinenone]","co-purified holoprotein, SEC with absorbance spectra, photocycle",GlOCPX [1],produced GlOCPX in Escherichia coli strains synthesizing ketocarotenoids canthaxanthin (CAN) or echinenone (ECH)
same,"co-purified holoprotein, absorbance, photocycle",ΔNTE-GlOCPX,All samples uniformly contained ECH as a cofactor
same,"X-ray crystal structure, 1.7 Å",GlOCPX [2],A well-defined density revealed that the GlOCPX-embedded carotenoid is echinenone (ECH)
